From publication PMC7381729, “A new class of PentixaFor- and PentixaTher-based theranostic agents with enhanced CXCR4-targeting efficiency” (Theranostics, 2020)
Where two headings read alike, the source gives them in different places. Each block holds one molecule with its values, some of them ahead of it. Where a SMILES comes first, the peptide text is derived from it. Side-chain parts run from the residue outwards. [ ]: non-standard residue; d: D form. The star is where a group is joined. DOTA = O=C(O)CN1CCN(CC(=O)O)CCN(CC(=O)*)CCN(CC(=O)O)CC1; dTyr(3-I) = N[C@H](Cc1ccc(O)c(I)c1)C(=O)O; 2Nal = N[C@@H](Cc1ccc2ccccc2c1)C(=O)O; dNMeOrn = CN[C@H](CCCN)C(=O)O; 4Abz = Nc1ccc(C(=O)O)cc1

Key:
[1] = Lipophilicity, modified shake-flask method; type: physicochemical; conditions: O/PBS, radiolabeled compound, means ± SD (n=6)
Description: The lipophilicity (log PO/PBS) of the ^68Ga- and ^177Lu-labeled compounds in this study was determined via a modified shake-flask method.

[2] = system: Daudi (human B-cell lymphoma) xenograft bearing CB-17 SCID mice; test: Biodistribution in Daudi xenograft bearing mice; type: in vivo, mouse; conditions: 1h p.i., tracer only, i.v.; γ-counter; means ± SD, n=4-5 (68Ga: n=4)
Description: (§1) The biodistribution of selected compounds was investigated in Daudi (human B-cell lymphoma) xenograft bearing female CB-17 SCID mice (6-8 weeks, Charles River, Sulzfeld, Germany), [29]. All animal experiments were performed in accordance with current animal welfare regulations in Germany (approval #55.2-1-54-2532-71-13).
(§2) Animals (n=4-5 per group) were injected intravenously with 5-10 MBq (0.08-0.11 nmol peptide per mouse) of the respective ^68Ga- and^ 177Lu-labeled CXCR4 ligands in PBS (100 µL) into the tail vein under isoflurane anesthesia. CXCR4-specificity of binding was determined by coinjection of 50 µg AMD3100 per mouse. The animals were sacrificed 1, 6 and 48h post injection (p.i.), and the organs of interest were dissected. The radioactivity was measured in weighted tissue samples using a γ-counter. Data are expressed in % ID/g tissue (mean ± SD).

[3] = Small animal PET imaging in Daudi xenograft bearing mice; type: in vivo; conditions: CB17 SCID, mouse, iv, total radioactivity, 90 min p.i., dynamic PET, ROI analysis, n=1 per compound
Description: Small aminal PET imaging studies were performed using a Siemens Inveon PET scanner. Animals were anesthetized with isoflurane and injected via the tail vein with 10 to 15 MBq (0.1 nmol) of the respective tracer. Dynamic imaging (n=1 per compound) was performed after on-bed injection for 1.5 h, and static images (n=1 per compound) were acquired at 1 h p.i. with an acquisition time of 15 min. Data analysis was performed using the Inveon Research Workplace software. Images were reconstructed using a 3D ordered-subsets expectation maximum (OSEM3D) algorithm without scanner and attenuation correction. Time-activity curves (Figure 4) were obtained by generating isocontour regions of interest (ROI) for the tumor and the heart content (as a surrogate for blood activity), as well as by defining two spherical ROIs (each 23.4 mm^3) in the thigh area (muscle) and areas of homogenous tracer uptake in the liver, followed by plotting of average activity ± SD per volume in these ROIs over time.  Figure 4 Results from small animal PET imaging using [^68Ga]PentixaFor (top row), [^68Ga]DOTA-r-a-ABA-CPCR4 (middle row) and [^68Ga]DOTA-r-a-ABA-iodoCPCR4 (bottom row) in Daudi xenograft bearing CB17 SCID mice. Images on the left (MIP) were obtained by static imaging (1h p.i., n=1), the time activity curves (TAC) on the right were acquired by dynamic PET imaging (0-90 min p.i., n=1).

[4] = Biodistribution in Daudi xenograft bearing mice; type: in vivo, mouse; conditions: female, CB-17 SCID, mouse, iv, total radioactivity, 1h p.i., tracer only, i.v., γ-counter, means ± SD, n=4-5 (68Ga: n=4)
Description: as §1, §2

- log PO/PBS [1]: -3.0 ± 0.02
SMILES: CN1C(=O)[C@@H](Cc2ccc(O)c(I)c2)NC(=O)CNC(=O)[C@H](Cc2ccc3ccccc3c2)NC(=O)[C@H](CCCNC(=N)N)NC(=O)[C@H]1CCCNC(=O)c1ccc(NC(=O)CNC(=O)[C@@H](CCCNC(=N)N)NC(=O)CN2CCN(CC(=O)O)CCN(CC(=O)O)CCN(CC(=O)O)CC2)cc1 [[^68Ga]DOTA-r-G-ABA-iodoCPCR4] [metal not drawn] (cyclo([2Nal]G[dTyr(3-I)][dNMeOrn]([4Abz-Gly-dR-DOTA])R))

- log PO/PBS [1]: -3.6 ± 0.06
- Biodistribution blood [2]: 3.95 ± 0.89 %iD/g
- Biodistribution liver [2]: 5.63 ± 0.51 %iD/g
SMILES: C[C@@H](NC(=O)[C@@H](CCCNC(=N)N)NC(=O)CN1CCN(CC(=O)O)CCN(CC(=O)O)CCN(CC(=O)O)CC1)C(=O)Nc1ccc(C(=O)NCCC[C@@H]2C(=O)N[C@@H](CCCNC(=N)N)C(=O)N[C@@H](Cc3ccc4ccccc4c3)C(=O)NCC(=O)N[C@H](Cc3ccc(O)cc3)C(=O)N2C)cc1 [[^68Ga]DOTA-r-a-ABA-CPCR4] [metal not drawn] (cyclo([2Nal]G[dY][dNMeOrn]([4Abz-dA-dR-DOTA])R))

- tissue uptake per volume at 1.5 h ([3]; kidney, read-out: Kidney uptake in PET): 4.3 ± 0.4 %ID/mL
- tissue uptake per volume at 1.5 h ([3]; liver, average ± SD per volume in ROI, read-out: Liver uptake in PET): 6.1 ± 0.1 %ID/mL
- tissue uptake per volume at 1.5 h ([3]; tumor (Daudi xenograft), Daudi xenograft, read-out: Tumor accumulation in PET): 14.2 ± 1.5 %ID/mL
- tissue uptake at 1 h ([4]; blood, read-out: Biodistribution blood): 3.71 ± 0.28 %ID/g
- tissue uptake at 1 h ([4]; colon, read-out: Biodistribution colon): 0.65 ± 0.29 %ID/g
- tissue uptake at 1 h ([4]; femur, read-out: Biodistribution femur): 1.41 ± 0.16 %ID/g
- tissue uptake at 1 h ([4]; heart, read-out: Biodistribution heart): 1.56 ± 0.2 %ID/g
- tissue uptake at 1 h ([4]; kidney, read-out: Biodistribution kidney): 6.25 ± 0.52 %ID/g
- tissue uptake at 1 h ([4]; muscle, read-out: Biodistribution muscle): 0.49 ± 0.08 %ID/g
- tissue uptake at 1 h ([4]; pancreas, read-out: Biodistribution pancreas): 0.88 ± 0.06 %ID/g
- tissue uptake at 1 h ([4]; small intestine, read-out: Biodistribution small intestine): 1.18 ± 0.03 %ID/g
SMILES: C[C@@H](NC(=O)[C@@H](CCCNC(=N)N)NC(=O)CN1CCN(CC(=O)O)CCN(CC(=O)O)CCN(CC(=O)O)CC1)C(=O)Nc1ccc(C(=O)NCCC[C@@H]2C(=O)N[C@@H](CCCNC(=N)N)C(=O)N[C@@H](Cc3ccc4ccccc4c3)C(=O)NCC(=O)N[C@H](Cc3ccc(O)c(I)c3)C(=O)N2C)cc1 [[^68Ga]DOTA-r-a-ABA-iodoCPCR4, metal not drawn] (cyclo([2Nal]G[dTyr(3-I)][dNMeOrn]([4Abz-dA-dR-DOTA])R))

- log PO/PBS [1]: -3.3 ± 0.02
- Biodistribution adrenals [2]: 1.51 ± 0.18 %iD/g
- Biodistribution liver [2]: 5.66 ± 0.40 %iD/g
- Biodistribution lung [2]: 2.91 ± 0.28 %iD/g
- Biodistribution spleen [2]: 3.02 ± 0.46 %iD/g
- Biodistribution stomach [2]: 0.93 ± 0.15 %iD/g
- Biodistribution tumor (Daudi xenograft) [2]: 8.32 ± 1.30 %iD/g
SMILES: C[C@@H](NC(=O)[C@@H](CCCNC(=N)N)NC(=O)CN1CCN(CC(=O)O)CCN(CC(=O)O)CCN(CC(=O)O)CC1)C(=O)Nc1ccc(C(=O)NCCC[C@@H]2C(=O)N[C@@H](CCCNC(=N)N)C(=O)N[C@@H](Cc3ccc4ccccc4c3)C(=O)NCC(=O)N[C@H](Cc3ccc(O)c(I)c3)C(=O)N2C)cc1 [[^68Ga]DOTA-r-a-ABA-iodoCPCR4] [metal not drawn] (cyclo([2Nal]G[dTyr(3-I)][dNMeOrn]([4Abz-dA-dR-DOTA])R))

- log PO/PBS [1]: -2.7 ± 0.05
SMILES: CN1C(=O)[C@@H](Cc2ccc(O)c(I)c2)NC(=O)CNC(=O)[C@H](Cc2ccc3ccccc3c2)NC(=O)[C@H](CCCNC(=N)N)NC(=O)[C@H]1CCCNC(=O)c1ccc(NC(=O)CNC(=O)[C@@H](CCCNC(=N)N)NC(=O)CN2CCN(CC(=O)O)CCN(CC(=O)O)CCN(CC(=O)O)CC2)cc1 [[^177Lu]DOTA-r-G-ABA-iodoCPCR4] [metal not drawn] (cyclo([2Nal]G[dTyr(3-I)][dNMeOrn]([4Abz-Gly-dR-DOTA])R))
